According to the NIST ThermoML archive (doi:10.1021/je401120a):

Columns and labels:
[1] = Liquid; for viscosity / electrical conductivity / speed of sound / mass density: 101 kPa; for electrical conductivity: Crison conductimeter (model GLP31); for speed of sound: Pulse-echo method; for mass density: Vibrating tube method; for vapor or sublimation pressure: Ebulliometric method (Recirculating still)
[2] = refractive index (Na D-line) (dimensionless); conditions: 101.33 kPa, Liquid, Standard Abbe refractometry
[3] = xn = mol fraction of the nth substance listed; conditions: 101 kPa, Liquid, x2 = 0; for speed of sound: Pulse-echo method; for mass density: Vibrating tube method
[4] = refractive index (Na D-line) (dimensionless); xn = mol fraction of the nth substance listed; conditions: 101 kPa, Liquid, Standard Abbe refractometry, x2 = 0

CCC[n+]1ccccc1.F[B-](F)(F)F [1-propylpyridinium tetrafluoroborate]
Conditions	electrical conductivity, [1] [S/m]	mass density, [1] [kg/m3]	refractive index, [2]	speed of sound, [1] [m/s]	viscosity, [1] [mPa·s]
293.15 K	0.302	1256.67	1.44588	1653.9	160
303.15 K	0.516	1249.54	1.44322	1629.8	90.75
313.15 K	0.799	1242.43	1.44057	1606.3	56.02
323.15 K	1.15	1235.31	1.43792	1583.3	36.99

CO [methanol]
Conditions	mass density, [1] [kg/m3]	refractive index, [2]	speed of sound, [1] [m/s]	vapor or sublimation pressure, [1] [kPa]	viscosity, [1] [mPa·s]
293.15 K	791.243	1.32843	1118.8	–	0.5833
303.15 K	781.813	1.32433	1086	21.93	0.507
313.15 K	772.287	1.32015	1053.5	–	0.4438
323.15 K	762.828	1.3167	1021.5	55.78	0.3873

CO [methanol] + CCC[n+]1ccccc1.F[B-](F)(F)F
Conditions	mass density, [3] [kg/m3]	refractive index, [4]	speed of sound, [3] [m/s]	viscosity, [3] [mPa·s]
293.15 K	791.243	1.32843	1118.8	0.5833
303.15 K	781.813	1.32433	1086	0.507
313.15 K	772.287	1.32015	1053.5	0.4438
323.15 K	762.828	1.3167	1021.5	0.3873
